Measurements taken from US12582656B2, “Nucleotide analogues” (R.G.C.C. Holdings AG, priority 2020, dated 2026).

Columns and labels:
[1] = system: Polymerase; assay: SYBR Green qPCR with modified adenosine analogues added, Ct measured; assay type: biochemical; settings: for effect on amplification of the template (qPCR): dose-dependent, efficacy higher for phosphate than hydroxyl at same concentration
Protocol: In a second set of experiments, the modified adenosine analogues were added in a SYBR Green qPCR mix, and reactions performed using the same template and primers as above. The Ct (Threshold Cycle) parameter was measured for each condition. The Ct is the cycle number at which the fluorescence generated within a reaction crosses the fluorescence threshold. The higher the Ct, the lower the amount of product (or lower expression).
At the same concentration, the efficacy of inhibition of amplification was higher for phosphate than hydroxyl.

[2] = molecular target: SARS-COV-2 polymerase NSP12 (Severe acute respiratory syndrome coronavirus 2, UniProt P0DTD1); assay: SARS-CoV-2 RNA polymerization assay with RdRp catalytic domain, PAGE gel (FIG. 2); assay type: biochemical; settings: rATP split 50:50 with compound, 37° C. for 2 h
[3] = gene 18SrRNA, substance 0.075 mM (Final)
[4] = gene 18SrRNA, substance 0.15 mM (Final)
[5] = gene 18SrRNA, substance 0.3 mM (Final)
[6] = gene ACTB, substance 0.075 mM (Final)
[7] = gene ACTB, substance 0.15 mM (Final)
[8] = gene ACTB, substance 0.3 mM (Final)

Structure (SMILES) | effect on amplification of the template (qPCR) [1] | Ct Mean [1, 3] | Ct Mean [1, 4] | Ct Mean [1, 5] | Ct Mean [1, 6] | Ct Mean [1, 7] | Ct Mean [1, 8] | in vitro replication of the SARS-CoV-2 RNA via the SARS-CoV-2 RNA polymerase [2]
Nc1ncnc2c1ncn2-c1nc(OP(=O)(O)O)c2ccccc2n1 [Compound C, 2-(6-amino-9H-purin-9-yl)quinazolin-4-yl dihydrogen phosphate] | decrease of the amplification of the template | 12.78 | 13.70 | 15.98 | 20.15 | 20.91 | 21.82 | inhibits
Nc1ncnc2c1ncn2C1OC(COP(=O)(O)OP(=O)(O)OP(=O)(O)O)CC1O.[Na] (stereo not drawn) [commercial inhibitor, Cordycepin 5′-triphosphate sodium salt, reference compound] | – | – | – | – | – | – | – | polymerization blocked
Nc1ncnc2c1ncn2-c1nc(O)c2ccc(F)cc2n1 [Compound B, 2-(6-amino-9H-purin-9-yl)-7-fluoro-quinazolin-4-ol] | – | – | – | – | – | – | – | inhibits
Nc1ncnc2c1ncn2-c1nc(O)c2ccccc2n1 [Compound A, 2-(6-amino-9H-purin-9-yl)quinazolin-4-ol] | decrease of the amplification of the template | 12.88 | 13.43 | 14.84 | 20.08 | 20.55 | 21.14 | inhibits
